Earlier results, collected in patent US6461634B1, “Food-based delivery of HGH-stimulating and other nutritional supplements” (priority 1999, dated 2002).

Test system: HGH
Settings: 5 mg melatonin taken orally one hour prior to vigorous exercise, versus vigorous exercise alone; healthy adult male subjects

## COc1ccc2[nH]cc(CCNC(C)=O)c2c1 [melatonin]
  increase in HGH resulting from vigorous exercise: triple
